Assay results taken from ChEMBL document CHEMBL1697781, “Assessment of the health effects of chemicals in humans: II. Construction of an adverse effects database for QSAR modeling” (Curr Drug Discov Technol, 2004).

Experiments:
Details in all cases: human; call rule not given here
Hepatotoxicity [1] = assay: FDA HLAED, liver enzyme composite activity
Hepatotoxicity [2] = assay: FDA HLAED, alkaline phosphatase increase
Hepatotoxicity [3] = assay: FDA HLAED, serum glutamic oxaloacetic transaminase (SGOT) increase
Hepatotoxicity [4] = assay: FDA HLAED, serum glutamic pyruvic transaminase (SGPT) increase
Hepatotoxicity [5] = assay: FDA HLAED, lactate dehydrogenase (LDH) increase
Hepatotoxicity [6] = assay: FDA HLAED, gamma-glutamyl transferase (GGT) increase
Throughout, for GGT Increase - Index Value: reference of the scale not given here.
Throughout, for LDH Increase - Index Value: reference of the scale not given here.

Row | SMILES | Composite Activity - Active (Hepatotoxicity [1]) | Composite Activity - Marginal (Hepatotoxicity [1]) | Composite Activity - Score (Hepatotoxicity [1]) | Alkaline Phosphatase Increase - Activity Score (Hepatotoxicity [2]) | Alkaline Phosphatase Increase - Index Value (Hepatotoxicity [2]) | Alkaline Phosphatase Increase - Number of Reports (Hepatotoxicity [2]) | SGOT Increase - Activity Score (Hepatotoxicity [3]) | SGOT Increase - Index Value (Hepatotoxicity [3]) | SGOT Increase - Number of Reports (Hepatotoxicity [3]) | SGPT Increase - Activity Score (Hepatotoxicity [4]) | SGPT Increase - Index Value (Hepatotoxicity [4]) | SGPT Increase - Number of Reports (Hepatotoxicity [4]) | LDH Increase - Activity Score (Hepatotoxicity [5]) | LDH Increase - Index Value (Hepatotoxicity [5]) | LDH Increase - Number of Reports (Hepatotoxicity [5]) | GGT Increase - Activity Score (Hepatotoxicity [6]) | GGT Increase - Index Value (Hepatotoxicity [6]) | GGT Increase - Number of Reports (Hepatotoxicity [6]) | Composite Activity - Active (Hepatotoxicity [1]; Liver) | Composite Activity - Marginal (Hepatotoxicity [1]; Liver) | other results
1 | C[C@]12CC[C@H]3[C@@H](CCC4=CC(=O)CC[C@@]43C)[C@@H]1CC[C@@H]2OC(=O)Cc1ccccc1 [TESTOSTERONE PHENYLACETATE] | 0 | 0 | Inactive | Inactive | 0 | < 4 | Inactive | 4.8 | < 4 | Inactive | 7.2 | < 4 | Inactive | 2.4 | < 4 | Inactive | 4.8 | < 4 | – | – | –
2 | CCC(=O)O[C@H]1CC[C@H]2[C@@H]3CCC4=CC(=O)CC[C@]4(C)[C@H]3CC[C@]12C [TESTOSTERONE PROPIONATE] | 0 | 0 | Inactive | Inactive | 0 | < 4 | Inactive | 4.8 | < 4 | Inactive | 7.2 | < 4 | Inactive | 2.4 | < 4 | Inactive | 4.8 | < 4 | – | – | –
3 | C[C@]12CC[C@H]3[C@@H](CCC4=CC(=O)CC[C@@]43C)[C@@H]1CC[C@@H]2O [TESTOSTERONE] | 0 | 0 | Inactive | Inactive | 0 | < 4 | Inactive | 4.8 | < 4 | Inactive | 7.2 | < 4 | Inactive | 2.4 | < 4 | Inactive | 4.8 | < 4 | – | – | –
4 | Cn1c(=O)c2[nH]cnc2n(C)c1=O.O [THEOPHYLLINE] | 0 | 0 | Inactive | Inactive | 0 | < 4 | Inactive | 0 | < 4 | Inactive | 0 | < 4 | Inactive | 0 | < 4 | Inactive | 0 | < 4 | – | – | –
5 | Clc1ccccc1CN1CCc2sccc2C1 [TICLOPIDINE] | – | – | – | Inactive | 0 | < 4 | Inactive | 0 | < 4 | Inactive | 0 | < 4 | Inactive | 0 | < 4 | Inactive | 0 | < 4 | 0 | 0 | Composite Activity - Score (Hepatotoxicity [1]; Liver): Inactive
6 | CC(C)(C)NC[C@H](O)COc1nsnc1N1CCOCC1 [TIMOLOL] | 0 | 0 | Inactive | Inactive | 0.1 | < 4 | Inactive | 0.1 | < 4 | Inactive | 0.1 | < 4 | Inactive | 0.1 | < 4 | Inactive | 0 | < 4 | – | – | –
7 | Clc1ccc(C(Cn2ccnc2)OCc2ccsc2Cl)c(Cl)c1 (configuration not stated) [TIOCONAZOLE] | – | – | – | Inactive | 0 | < 4 | Inactive | 0 | < 4 | Inactive | 0 | < 4 | Inactive | 0 | < 4 | Inactive | 0 | < 4 | 0 | 0 | Composite Activity - Score (Hepatotoxicity [1]; Liver): Inactive
8 | CC(S)C(=O)NCC(=O)O (configuration not stated) [TIOPRONIN] | 0 | 0 | Inactive | Inactive | 0 | < 4 | Inactive | 0 | < 4 | Inactive | 0 | < 4 | Inactive | 0 | < 4 | Inactive | 0 | < 4 | – | – | –
9 | Clc1ccc2nsnc2c1NC1=NCCN1 [TIZANIDINE] | – | – | – | Inactive | 8.3 | < 4 | Inactive | 16.5 | < 4 | Active | 24.8 | < 4 | Inactive | 8.3 | < 4 | Inactive | 8.3 | < 4 | 1 | 0 | Composite Activity - Score (Hepatotoxicity [1]; Liver): Inactive
